{
  "source": "ChEMBL document CHEMBL6120971",
  "about": "(J Med Chem, 2024)",
  "key": {"[1]": {"molecular_target": "T1, Protein cereblon/Hepatocyte growth factor receptor (Homo sapiens, UniProt P08581+Q96SW2)", "assay": "PROTAC activity at CRBN/c-MET in human MKN-45 cells assessed as induction of c-MET degradation at 100 to 1000 nM incubated for 24 hrs by Western blot analysis relative to control", "assay_type": "cell-based", "conditions": "dose 100-1000 nM"}, "[2]": {"molecular_target": "T1, Protein cereblon/Hepatocyte growth factor receptor", "assay": "PROTAC activity at CRBN/c-MET in human MKN-45 cells assessed as induction of c-MET degradation incubated for 24 hrs by Western blot analysis", "assay_type": "cell-based"}, "[3]": {"molecular_target": "T1, Protein cereblon/Hepatocyte growth factor receptor", "assay": "PROTAC activity at CRBN/c-MET in human MKN-45 cells assessed as induction of c-MET degradation by measuring maximal efficacy incubated for 24 hrs by Western blot analysis relative to control", "assay_type": "cell-based"}, "[4]": {"molecular_target": "T1, Protein cereblon/Hepatocyte growth factor receptor", "assay": "PROTAC activity at CRBN/c-MET in human MKN-45 cells assessed as induction of c-MET degradation at 100 nM incubated for 2 to 16 hrs by Western blot analysis", "assay_type": "cell-based", "conditions": "time 2-16 hrs"}, "[5]": {"molecular_target": "T1, Protein cereblon/Hepatocyte growth factor receptor", "assay": "PROTAC activity at CRBN/c-MET in human Hs746T cells assessed as induction of c-MET degradation at 12.5 to 200 nM incubated for 24 hrs by Western blot analysis", "assay_type": "cell-based", "conditions": "dose 12.5-200 nM"}, "[6]": {"test_system": "PC-9", "assay": "Inhibition of c-MET/Akt signaling pathway activation in human PC-9 cells at 3.125 to 50 nM incubated for 24 hrs by Western blot analysis", "assay_type": "cell-based", "conditions": "dose 3.125-50 nM"}, "[7]": {"test_system": "PC-9", "assay": "Cell cycle arrest in human PC-9 cells assessed as accumulation of cells at G0/G1 phase incubated for 48 hrs by PI staining based flow cytometric analysis", "assay_type": "functional", "conditions": "dose 3.125-50 nM"}, "[8]": {"test_system": "PC-9", "assay": "Induction of apoptosis in human PC-9 cells at 3.125 to 50 nM incubated for 48 hrs by Annexin V-FITC/PI staining based flow cytometric analysis", "assay_type": "functional, cell-based", "conditions": "dose 3.125-50 nM"}, "[9]": {"molecular_target": "T1, Protein cereblon/Hepatocyte growth factor receptor", "assay": "PROTAC activity at CRBN/c-MET in human NGEC cells assessed as induction of c-MET degradation upto 50 nM incubated for 24 hrs by Western blot analysis", "assay_type": "cell-based", "conditions": "NGEC cell"}, "[10]": {"molecular_target": "T1, Protein cereblon/Hepatocyte growth factor receptor", "assay": "PROTAC activity at CRBN/c-MET in human PC-3 cells assessed as induction of c-MET degradation at 12.5 to 100 nM incubated for 24 hrs by Western blot analysis", "assay_type": "cell-based", "conditions": "dose 12.5-100 nM"}, "[11]": {"molecular_target": "T1, Protein cereblon/Hepatocyte growth factor receptor", "assay": "PROTAC activity at CRBN/c-MET in human MKN-45 cells assessed as induction of c-MET degradation at 100 nM preincubated with capmatinib for 2 hrs followed by compound addition and measured after 24 hrs by Western blot analysis", "assay_type": "cell-based"}, "[12]": {"molecular_target": "T1, Protein cereblon/Hepatocyte growth factor receptor", "assay": "PROTAC activity at CRBN/c-MET in human MKN-45 cells assessed as induction of c-MET degradation at 100 nM preincubated with pomalidomide for 2 hrs followed by compound addition and measured after 24 hrs by Western blot analysis", "assay_type": "cell-based"}, "[13]": {"molecular_target": "T1, Protein cereblon/Hepatocyte growth factor receptor", "assay": "PROTAC activity at CRBN/c-MET in human MKN-45 cells assessed as induction of c-MET degradation at 100 nM preincubated with MLN4924 for 2 hrs followed by compound addition and measured after 24 hrs by Western blot analysis", "assay_type": "cell-based"}, "[14]": {"assay": "Tmax in male Sprague-Dawley rat at 10 mg/kg, iv measured after 24 hrs by LC-MS/MS analysis", "assay_type": "ADME, organism-based", "conditions": "in vivo"}, "[15]": {"assay": "Downregulation of c-MET protein level in human MKN-45 cells assessed as residual activity at 100 nM incubated for 24 hrs by MS-based quantitative proteomics analysis relative to control", "assay_type": "functional"}, "[16]": {"test_system": "MKN-45", "assay": "Upregulation of PDCD4 protein level in human MKN-45 cells at 100 nM incubated for 24 hrs by MS-based quantitative proteomics analysis", "assay_type": "functional, cell-based"}, "[17]": {"test_system": "MKN-45", "assay": "Upregulation of HSPG2 protein level in human MKN-45 cells at 100 nM incubated for 24 hrs by MS-based quantitative proteomics analysis", "assay_type": "functional, cell-based"}, "[18]": {"test_system": "MKN-45", "assay": "Downregulation of ULK2B protein level in human MKN-45 cells at 100 nM incubated for 24 hrs by MS-based quantitative proteomics analysis", "assay_type": "functional, cell-based"}, "[19]": {"molecular_target": "T1, Protein cereblon/Hepatocyte growth factor receptor", "assay": "PROTAC activity at CRBN/c-MET in human MKN-45 cells assessed as induction of c-MET degradation at 6.25 to 100 nM incubated for 24 hrs by Western blot analysis", "assay_type": "cell-based", "conditions": "dose 6.25-100 nM"}, "[20]": {"test_system": "MKN-45", "assay": "Downregulation of CHCHD2 protein level in human MKN-45 cells at 100 nM incubated for 24 hrs by MS-based quantitative proteomics analysis", "assay_type": "functional, cell-based"}, "[21]": {"test_system": "MKN-45", "assay": "Downregulation of SLC7A1 protein level in human MKN-45 cells at 100 nM incubated for 24 hrs by MS-based quantitative proteomics analysis", "assay_type": "functional, cell-based"}, "[22]": {"molecular_target": "Protein cereblon/Importin subunit alpha-1 (Homo sapiens) (UniProt P52292+Q96SW2)", "assay": "PROTAC activity at CRBN/KPNA2 in human MKN-45 cells assessed as induction of c-MET degradation at 6.25 to 100 nM incubated for 24 hrs by Western blot analysis", "assay_type": "cell-based", "conditions": "dose 6.25-100 nM"}, "[23]": {"test_system": "MKN-45", "assay": "Antitumor activity against human MKN-45 cells xenografted in BALB/c nude mouse assessed as reduction in tumor growth administered orally as once daily dose for 21 days", "assay_type": "functional", "conditions": "dose 10-40 mg/kg, route po, time 21.0 day"}, "[24]": {"test_system": "MKN-45", "assay": "Antitumor activity against human MKN-45 cells xenografted in BALB/c nude mouse assessed as reduction in tumor growth at 10 mg/kg, po administered once daily for 21 days", "assay_type": "functional, organism-based", "conditions": "time 21.0 day"}, "[25]": {"assay": "Toxicity in BALB/c nude mouse xenografted with human MKN-45 cells assessed as effect on liver morphology at 10 to 40 mg/kg, po administered once daily for 21 days by H and E staining based analysis", "assay_type": "organism-based", "conditions": "in vivo, 504 h, dose 10-40 mg/kg, time 21 day"}, "[26]": {"assay": "Toxicity in BALB/c nude mouse xenografted with human MKN-45 cells assessed as effect on spleen morphology at 10 to 40 mg/kg, po administered once daily for 21 days by H and E staining based analysis", "assay_type": "organism-based", "conditions": "in vivo, 504 h, dose 10-40 mg/kg, time 21 day"}, "[27]": {"assay": "Toxicity in BALB/c nude mouse xenografted with human MKN-45 cells assessed as effect on heart morphology at 10 to 40 mg/kg, po administered once daily for 21 days by H and E staining based analysis", "assay_type": "organism-based", "conditions": "in vivo, 504 h, dose 10-40 mg/kg, time 21 day"}, "[28]": {"test_system": "Mus musculus", "assay": "Downregulation of c-MET protein level in BALB/c nude mouse stomach xenografted with human MKN-45 cells at 10 mg/kg, po measured after 48 hrs by Western blot analysis", "assay_type": "functional, organism-based"}, "[29]": {"assay": "Tmax in male Sprague-Dawley rat at 10 mg/kg, po measured after 24 hrs by LC-MS/MS analysis", "assay_type": "ADME, organism-based", "conditions": "in vivo"}, "[30]": {"assay": "Cmax in male Sprague-Dawley rat at 10 mg/kg, po measured after 24 hrs by LC-MS/MS analysis", "assay_type": "ADME, organism-based", "conditions": "in vivo"}, "[31]": {"assay": "AUC (0 to infinity) in male Sprague-Dawley rat at 10 mg/kg, po measured after 24 hrs by LC-MS/MS analysis", "assay_type": "ADME, organism-based", "conditions": "in vivo"}, "[32]": {"assay": "MRT (0 to infinity) in male Sprague-Dawley rat at 10 mg/kg, iv measured after 24 hrs by LC-MS/MS analysis", "assay_type": "ADME, organism-based", "conditions": "in vivo"}, "[33]": {"assay": "Oral bioavailability in male Sprague-Dawley rat at 10 mg/kg measured after 24 hrs by LC-MS/MS analysis", "assay_type": "ADME, organism-based", "conditions": "in vivo"}},
  "note": "Calls of active or inactive are those of the source. The rule behind the calls is not given here.",
  "data": [
    {"smiles": "O=C1CCC(N2C(=O)c3ccc(N4CCN(CC5CCN(C(=O)c6ccc(-c7cnc8ncc(Cc9ccc%10ncccc%10c9)n8n7)cc6F)CC5)CC4)cc3C2=O)C(=O)N1", "note": "(stereo not drawn)", "values": [
      {"measurement": "Activity", "setting": "[1]", "value": 100, "unit": "%"},
      {"measurement": "DC50", "setting": "[2]", "value": 6.21, "unit": "nM"},
      {"measurement": "Emax", "setting": "[3]", "value": 96.8, "unit": "%"},
      {"measurement": "Activity", "setting": "[4]", "value": "Active"},
      {"measurement": "Activity", "setting": "[5]", "value": "Active"},
      {"measurement": "inhibition", "setting": "[6]", "value": "Active"},
      {"measurement": "Activity", "setting": "[7]", "value": "Dose-dependent-effect"},
      {"measurement": "Activity", "setting": "[8]", "value": "Active; Little Effect Observed"},
      {"measurement": "Activity", "setting": "[9]", "value": "Weak_effect"},
      {"measurement": "Activity", "setting": "[10]", "value": "inactive"},
      {"measurement": "Activity", "setting": "[11]", "value": "inactive"},
      {"measurement": "Activity", "setting": "[12]", "value": "inactive"},
      {"measurement": "Activity", "setting": "[13]", "value": "inactive"},
      {"measurement": "Tmax", "setting": "[14]", "value": 4.8, "unit": "min"},
      {"measurement": "Activity", "setting": "[15]", "value": 3.38, "unit": "%"},
      {"measurement": "Activity", "setting": "[16]", "value": "Active"},
      {"measurement": "Activity", "setting": "[17]", "value": "Active"},
      {"measurement": "Activity", "setting": "[18]", "value": "Active"},
      {"measurement": "Activity", "setting": "[19]", "value": "Active"},
      {"measurement": "Activity", "setting": "[20]", "value": "Active"},
      {"measurement": "Activity", "setting": "[21]", "value": "Active"},
      {"measurement": "Activity", "setting": "[22]", "value": "inactive"},
      {"measurement": "Activity", "setting": "[23]", "value": "Dose-dependent-effect"},
      {"measurement": "Activity", "setting": "[24]", "value": "Active; Significant Effect Observed"},
      {"measurement": "Activity", "setting": "[25]", "value": "Non-toxic"},
      {"measurement": "Activity", "setting": "[26]", "value": "Non-toxic"},
      {"measurement": "Activity", "setting": "[27]", "value": "Non-toxic"},
      {"measurement": "Activity", "setting": "[28]", "value": "Not active; Favorable Tissue Specificity Of Compound Observed"},
      {"measurement": "Tmax", "setting": "[29]", "value": 2, "unit": "h"},
      {"measurement": "Cmax", "setting": "[30]", "value": 70.7, "unit": "ng/mL"},
      {"measurement": "AUC(0-inf)", "setting": "[31]", "value": 411, "unit": "ng·h/mL"},
      {"measurement": "MRT inf", "setting": "[32]", "value": 2.56, "unit": "h"},
      {"measurement": "bioavailability", "setting": "[33]", "value": 16.3, "unit": "%"}
    ]}
  ]
}
